Results as given in PubChem BioAssay (NCI).
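Each compound was tested at five concentrations against cells in 96-well plates for 48 hours. The concentration for full growth arrest is given as TGI.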

Tests used:
Experiment in all cases: inhibition of tumour cell growth, NCI panel, 48 h
NCI-H226 lung = tested on: NCI-H226 lung
786-0 renal = tested on: 786-0 renal
SK-OV-3 ovarian = tested on: SK-OV-3 ovarian
OVCAR-3 ovarian = tested on: OVCAR-3 ovarian
SK-MEL-5 melanoma = tested on: SK-MEL-5 melanoma
SF-268 CNS = tested on: SF-268 CNS
RXF 393 renal = tested on: RXF 393 renal
NCI-H23 lung = tested on: NCI-H23 lung
MOLT-4 leukemia = tested on: MOLT-4 leukemia
OVCAR-8 ovarian = tested on: OVCAR-8 ovarian

Structure (SMILES)	TGI (NCI-H226 lung) [µM]	TGI (786-0 renal) [µM]	TGI (SK-OV-3 ovarian) [µM]	TGI (OVCAR-3 ovarian) [µM]	TGI (SK-MEL-5 melanoma) [µM]	TGI (SF-268 CNS) [µM]	TGI (RXF 393 renal) [µM]	TGI (NCI-H23 lung) [µM]	TGI (MOLT-4 leukemia) [µM]	TGI (OVCAR-8 ovarian) [µM]
O=C(N=S(NC(=O)c1ccccc1)C(Cl)(Cl)Cl)c1ccccc1 (stereo not given)	> 58.6	54.9	> 31.6	> 77.7	20.5	> 100	18	30	30.7	38.8
CC1(CCC2C=CCC2)CCCNC1=S (stereo not given)	> 10	> 10	> 10	> 10	> 10	> 10	> 10	> 10	> 10	> 10
Cc1ccc(-c2nc3ccc(Cl)cc3[nH]2)cc1	> 100	> 100	> 100	> 100	> 100	> 100	> 100	> 100	> 100	> 100
C=C1CC2OC2(C(=O)O[C@H]2CCC3[C@@H]4CCC5=CC(=O)CC[C@]5(C)C4CC[C@@]32C)C1=O (stereo not given in full)	55.5	4.83	38.8	21.8	27.6	18.2	10.9	27.3	5.96	45.1
COc1nc2c(c(=O)n1C)N(C(C)=O)C1C(N2)OCC(OC(C)=O)C1OC(C)=O (stereo not given)	> 10	> 10	> 10	> 10	> 10	> 10	> 10	> 10	> 10	> 10
CNC(=O)N1CN(c2ccccc2)C2(CCN(CCCC(=O)c3ccc(F)cc3)CC2)C1=O	79.4	87.1	79.9	41.6	26.7	> 100	54.6	87.5	33.6	> 100
